The source of these data is US9067894B1, “Compound, composition, and method of activating GIRK potassium channel and use of same for treating conditions of interest” (Vanderbilt University, priority 2013, dated 2015).

Molecules are shown by their SMILES. Read-outs that look alike come from different tables or passages of the source.

Data set [1] relates to L-Type Ca channel (dihydropyridine). Description: Radioligand displacement (Ricerca). In kind it is binding, rat. The note with it: 10 μM. Background: Loss of bound radioactivity is the signal in a displacement assay; it reports binding, not function.
Data set [2] deals with Glutamate (NMDA agonism). Briefly: Radioligand displacement (Ricerca). Type of data set: binding, rat. The following applies: 10 μM.
The target of data set [3] is T1, Adrenergic α1B (Rattus norvegicus, UniProt P15823).
T1 construct: Ricerca (contract assay)
Description: Radioligand displacement (Ricerca). In kind it is binding.

The nature of data set [4]: Microsomal clearance, murine liver microsomes. Type of data set: in vitro ADME, mouse. The method, then:
DMPK Methods. […] After a 5 min preincubation, the reaction was initiated by addition of NADPH (1 mM). At selected time intervals (0, 3, 7, 15, 25, and 45 min), 50 μL aliquots were taken and subsequently placed into a 96-well plate containing 150 μL of cold acetonitrile with internal standard (50 ng/mL carbamazepine). Plates were then centrifuged at 3000 rcf (4° C.) for 10 min, and the supernatant was transferred to a separate 96-well plate and diluted 1:1 with water for LC/MS/MS analysis. […] Liquid Chromatography/Mass Spectrometry Analysis. In vitro experiments. VU0456810 was analyzed on a Thermo Electron TSQ Quantum Ultra triple quad mass spectrometer (San Jose, Calif.) via electrospray ionization (ESI) with two Themo Electron Accella pumps (San Jose, Calif.), and a Leap Technologies CTC PAL autosampler (Carrboro, N.C.). Analytes were separated by gradient elution on a dual column system with two Thermo Hypersil Gold (2.1×30 mm, 1.9 μm) columns (San Jose, Calif.) at 40° C. […] The total run time was 1.3 min and the HPLC flow rate was 0.8 mL/min. […] Compound optimization, data collection and processing were performed using Thermo Electron's QuickQuan software (v2.3) and Xcalibur (v2.0.7 SP1).
A general note: Microsomes from liver hold many membrane-bound enzymes, among them those of drug oxidation.

Data set [5] deals with T2, hERG (Homo sapiens, UniProt Q12809).
T2 construct: Ricerca (contract laboratory that ran the panel)
Briefly: Radioligand displacement (Ricerca). In kind it is binding.

The target in data set [6] is T3, Muscarinic M2 (Homo sapiens, UniProt P08172).
T3 construct: Ricerca (contract laboratory that ran the panel)
Description: Radioligand displacement (Ricerca). Type of data set: binding.

Data set [7] relates to Nicotinic acetylcholine. Briefly: Radioligand displacement (Ricerca), second nicotinic entry. In kind it is binding, human. The note with it: 10 μM; second Nicotinic acetylcholine line.
The target of data set [8] is T4, Muscarinic M1 (Homo sapiens, UniProt P11229).
T4 construct: Ricerca (contract laboratory that ran the panel)
Description: Radioligand displacement (Ricerca). In kind it is binding.

The nature of data set [9]: Rotarod test. In kind it is in vivo, mouse. The note with it: mice, 60 mg/kg i.p. The method, then:
For rotarod tests, a rotarod module was inserted into a mouse home cage and was operated by the SmartCage™ (AfaSci, Inc., Redwood City, Calif.) system28. A mouse was placed on the rod and the rod began to rotate at a fixed speed (15 rpm). Latencies for the mice to fall off the rod were recorded. […] Two groups of mice (n=8 mice/group) were trained on the rotarod over 4 consecutive days. On training days, each mouse was allowed to perform on the rotarod a total of 4 times. For each training day, each mouse's lowest rotarod latency was excluded. The remaining 3 rotarod latencies were averaged and served as the mouse's rotarod performance for that training day. […] Approximately 1 hour post-drug/vehicle injection, each mouse's rotarod performance was assessed a total of 4 times with the mouse's worst performance being excluded. The remaining 3 rotarod latencies were then averaged for each mouse and these values were normalized to the mouse's previous performance on the final training day to account for variation in individual animal's competency on the rotarod.
Background: The rotarod test checks motor coordination on a turning rod.

Data set [10] deals with Purinergic P2Y. Description: Radioligand displacement (Ricerca). In kind it is binding, rat. The note with it: 10 μM.
Data set [11] addresses T5, Serotonin 5-HT3 (Homo sapiens, UniProt P46098).
T5 construct: Ricerca (contract panel)
Description: Radioligand displacement (Ricerca). In kind it is binding.

Data set [12] has as its target T6, N-Type Ca channel (Rattus norvegicus, UniProt Q02294).
T6 construct: Ricerca
Description: Radioligand displacement (Ricerca). Type of data set: binding.

The target in data set [13] is T7, Glucocorticoid (Homo sapiens, UniProt P04150).
T7 construct: Ricerca
Description: Radioligand displacement (Ricerca). In kind it is binding.

Data set [14] in a line: In vivo pharmacokinetic study, IP in mice. The following applies: mouse, intraperitoneal 10 mg/kg. As for the experimental part: In Vivo Pharmacokinetic Study. Compound(s) were formulated in 10% Tween80 in sterile water at the concentration of 3.33 mg/mL and administered IP to male C57 BL6 mice weighing 20 to 25 g (Harlan, Indianapolis, Ind.) at the dose of 10 mg/kg. The blood (cardiac puncture) and brain were collected at 0.5, 1, 3, and 6 hr. Animals were euthanized and decapitated, and the brains were removed, thoroughly washed in cold phosphate-buffered saline, and immediately frozen on dry ice. Plasma was separated by centrifugation (4000 rcf, 4° C.) and stored at −80° C. until analysis. On the day of analysis, frozen whole-[…] brains were weighed and diluted with 1:3 (w/w) parts of 70:30 isopropanol:water. The mixture was then subjected to mechanical homogenation employing a Mini-Beadbeater™ and 1.0 mm Zirconia/Silica Beads (BioSpec Products) followed by centrifugation. The sample extraction of plasma (20 μL) or brain homogenate (20 μL) was performed by a method based on protein precipitation using three volumes of ice-cold acetonitrile containing an internal standard (50 ng/mL carbamazepine). The samples were centrifuged (3000 rcf, 5 min) and supernatants transferred and diluted 1:1 (supernatant: water) into a new 96 well plate, which was then sealed in preparation for LC/MS/MS analysis.
LC/MS/MS Bioanalysis of Samples from In Vivo Studies. In vivo samples were analyzed via electrospray ionization (ESI) on an AB Sciex QTrap 5500 (Foster City, Calif.) triple-quadrupole linear ion trap instrument that was coupled with Shimadzu LC-20AD pumps (Columbia, Md.) and a Leap Technologies CTC PAL auto-sampler (Carrboro, N.C.). Analytes were separated by gradient elution using a Fortis C18 2.1×50 mm, 3 μm column (Fortis Technologies Ltd, Cheshire, UK) at 40° C. HPLC mobile phase A was 0.1% formic acid in water (pH unadjusted), mobile phase B was 0.1% formic acid in acetonitrile (pH unadjusted). […] The total run time was 2.5 min and the HPLC flow rate was 0.5 mL/min. The source temperature was set at 500° C. and mass spectral analyses were performed using multiple reaction monitoring (MRM), with transitions specific for each compound utilizing a Turbo-Ionspray® source in positive ionization mode (5.0 kV spray voltage). The calibration curves were constructed, and linear response was obtained in the range of 0.5 to 5,000 ng/mL, by spiking known amounts of […] in blank brain homogenate or plasma. All data were analyzed using AB Sciex Analyst software v1.5.1. The final PK parameters were calculated by noncompartmental analysis using Phoenix (version 6.2) (Pharsight Inc., Mountain View, Calif.).

T3 sequence (P08172 whole entry): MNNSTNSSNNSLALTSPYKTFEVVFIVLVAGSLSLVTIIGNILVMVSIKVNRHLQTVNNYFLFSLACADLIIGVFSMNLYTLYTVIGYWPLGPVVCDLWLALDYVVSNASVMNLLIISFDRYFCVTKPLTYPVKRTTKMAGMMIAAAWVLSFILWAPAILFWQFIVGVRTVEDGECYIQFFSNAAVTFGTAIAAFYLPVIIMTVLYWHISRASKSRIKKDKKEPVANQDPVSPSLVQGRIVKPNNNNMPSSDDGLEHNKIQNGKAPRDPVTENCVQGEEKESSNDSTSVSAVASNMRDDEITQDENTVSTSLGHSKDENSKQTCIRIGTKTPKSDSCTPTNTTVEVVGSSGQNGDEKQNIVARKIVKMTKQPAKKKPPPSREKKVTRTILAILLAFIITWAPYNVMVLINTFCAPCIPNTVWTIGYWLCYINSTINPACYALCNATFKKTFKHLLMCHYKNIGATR
T6 sequence (Q02294 whole entry): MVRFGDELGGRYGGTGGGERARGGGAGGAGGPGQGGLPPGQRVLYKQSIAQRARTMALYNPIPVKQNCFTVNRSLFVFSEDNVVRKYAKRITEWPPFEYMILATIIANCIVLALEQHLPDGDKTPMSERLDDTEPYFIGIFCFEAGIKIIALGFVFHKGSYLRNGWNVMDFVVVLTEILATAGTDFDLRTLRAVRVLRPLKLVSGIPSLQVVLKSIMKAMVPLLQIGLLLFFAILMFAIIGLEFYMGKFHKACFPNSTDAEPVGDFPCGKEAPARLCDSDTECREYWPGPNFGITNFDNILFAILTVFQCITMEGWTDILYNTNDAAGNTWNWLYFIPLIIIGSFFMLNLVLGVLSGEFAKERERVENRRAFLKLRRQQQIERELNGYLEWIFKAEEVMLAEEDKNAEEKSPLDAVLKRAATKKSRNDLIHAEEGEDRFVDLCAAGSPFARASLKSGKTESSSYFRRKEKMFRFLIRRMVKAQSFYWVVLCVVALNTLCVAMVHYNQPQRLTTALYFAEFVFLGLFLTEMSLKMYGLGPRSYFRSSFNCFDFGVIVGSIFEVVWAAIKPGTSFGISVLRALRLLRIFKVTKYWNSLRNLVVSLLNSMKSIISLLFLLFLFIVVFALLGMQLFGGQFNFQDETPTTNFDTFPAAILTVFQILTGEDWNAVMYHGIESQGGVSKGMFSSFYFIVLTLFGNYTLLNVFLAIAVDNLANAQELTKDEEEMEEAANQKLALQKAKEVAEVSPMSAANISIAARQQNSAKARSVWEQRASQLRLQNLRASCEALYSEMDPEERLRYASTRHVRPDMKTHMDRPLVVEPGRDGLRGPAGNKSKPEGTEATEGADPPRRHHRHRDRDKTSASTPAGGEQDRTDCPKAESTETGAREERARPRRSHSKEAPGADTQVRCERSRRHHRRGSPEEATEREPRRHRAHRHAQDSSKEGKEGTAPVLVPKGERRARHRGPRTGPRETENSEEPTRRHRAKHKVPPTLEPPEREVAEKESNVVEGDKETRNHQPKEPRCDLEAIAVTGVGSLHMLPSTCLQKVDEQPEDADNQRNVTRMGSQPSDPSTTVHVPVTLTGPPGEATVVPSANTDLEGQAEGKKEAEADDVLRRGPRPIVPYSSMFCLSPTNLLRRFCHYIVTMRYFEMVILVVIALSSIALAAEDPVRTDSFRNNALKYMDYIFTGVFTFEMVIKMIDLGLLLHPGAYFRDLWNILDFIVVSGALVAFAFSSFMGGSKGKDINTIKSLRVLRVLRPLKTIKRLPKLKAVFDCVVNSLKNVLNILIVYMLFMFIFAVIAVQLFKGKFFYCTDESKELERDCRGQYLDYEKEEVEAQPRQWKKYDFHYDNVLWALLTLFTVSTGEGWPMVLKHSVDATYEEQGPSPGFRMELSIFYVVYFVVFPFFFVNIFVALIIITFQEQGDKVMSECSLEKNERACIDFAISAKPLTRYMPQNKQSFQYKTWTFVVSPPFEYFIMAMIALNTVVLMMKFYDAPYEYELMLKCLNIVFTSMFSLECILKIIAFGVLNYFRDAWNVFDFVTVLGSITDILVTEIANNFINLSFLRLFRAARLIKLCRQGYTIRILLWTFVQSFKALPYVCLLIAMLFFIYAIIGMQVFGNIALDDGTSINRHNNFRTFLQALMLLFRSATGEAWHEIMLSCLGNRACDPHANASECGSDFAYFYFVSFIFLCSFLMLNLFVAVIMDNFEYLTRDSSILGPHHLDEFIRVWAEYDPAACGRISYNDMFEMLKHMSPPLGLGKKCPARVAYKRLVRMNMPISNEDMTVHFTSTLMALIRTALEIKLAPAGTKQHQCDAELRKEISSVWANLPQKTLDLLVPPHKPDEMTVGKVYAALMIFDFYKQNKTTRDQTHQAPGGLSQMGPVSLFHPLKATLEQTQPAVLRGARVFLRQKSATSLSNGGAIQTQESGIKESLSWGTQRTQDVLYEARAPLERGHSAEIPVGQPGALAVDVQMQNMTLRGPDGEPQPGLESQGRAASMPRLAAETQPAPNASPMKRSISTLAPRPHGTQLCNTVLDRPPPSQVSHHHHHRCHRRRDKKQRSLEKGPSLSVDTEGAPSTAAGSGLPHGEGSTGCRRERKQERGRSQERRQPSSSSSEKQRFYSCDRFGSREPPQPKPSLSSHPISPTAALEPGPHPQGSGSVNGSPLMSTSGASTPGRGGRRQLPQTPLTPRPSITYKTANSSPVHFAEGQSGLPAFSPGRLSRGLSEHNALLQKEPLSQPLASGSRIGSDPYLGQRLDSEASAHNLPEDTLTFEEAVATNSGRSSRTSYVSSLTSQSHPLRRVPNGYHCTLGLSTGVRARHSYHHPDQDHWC
T1 sequence (P15823 whole entry): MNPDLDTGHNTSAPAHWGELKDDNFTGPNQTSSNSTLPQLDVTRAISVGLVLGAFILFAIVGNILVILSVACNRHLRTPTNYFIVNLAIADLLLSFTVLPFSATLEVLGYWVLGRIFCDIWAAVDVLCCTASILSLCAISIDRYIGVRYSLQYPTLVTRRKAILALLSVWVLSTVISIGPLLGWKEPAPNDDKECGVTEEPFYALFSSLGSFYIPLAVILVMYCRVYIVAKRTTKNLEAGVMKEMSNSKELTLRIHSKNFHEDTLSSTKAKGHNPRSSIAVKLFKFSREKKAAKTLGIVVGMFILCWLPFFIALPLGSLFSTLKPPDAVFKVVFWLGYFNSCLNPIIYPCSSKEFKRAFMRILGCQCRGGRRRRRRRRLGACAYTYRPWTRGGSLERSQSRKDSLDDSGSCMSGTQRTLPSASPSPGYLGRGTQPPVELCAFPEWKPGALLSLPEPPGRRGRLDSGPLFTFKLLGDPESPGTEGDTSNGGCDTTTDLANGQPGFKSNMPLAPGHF
T4 sequence (P11229 whole entry): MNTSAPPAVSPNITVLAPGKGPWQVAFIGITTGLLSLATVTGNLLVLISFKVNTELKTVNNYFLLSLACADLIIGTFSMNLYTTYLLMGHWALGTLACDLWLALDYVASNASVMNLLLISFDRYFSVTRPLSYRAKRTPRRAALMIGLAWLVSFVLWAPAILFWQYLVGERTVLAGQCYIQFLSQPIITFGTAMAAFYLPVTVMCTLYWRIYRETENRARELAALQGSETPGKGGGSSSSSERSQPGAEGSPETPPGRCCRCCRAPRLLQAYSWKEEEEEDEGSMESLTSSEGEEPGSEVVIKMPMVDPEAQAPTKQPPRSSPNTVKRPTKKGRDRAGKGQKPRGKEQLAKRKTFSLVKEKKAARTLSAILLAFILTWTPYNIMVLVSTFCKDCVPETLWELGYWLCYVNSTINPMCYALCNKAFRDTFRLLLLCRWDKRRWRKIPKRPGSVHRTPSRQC
T2 sequence (Q12809 whole entry): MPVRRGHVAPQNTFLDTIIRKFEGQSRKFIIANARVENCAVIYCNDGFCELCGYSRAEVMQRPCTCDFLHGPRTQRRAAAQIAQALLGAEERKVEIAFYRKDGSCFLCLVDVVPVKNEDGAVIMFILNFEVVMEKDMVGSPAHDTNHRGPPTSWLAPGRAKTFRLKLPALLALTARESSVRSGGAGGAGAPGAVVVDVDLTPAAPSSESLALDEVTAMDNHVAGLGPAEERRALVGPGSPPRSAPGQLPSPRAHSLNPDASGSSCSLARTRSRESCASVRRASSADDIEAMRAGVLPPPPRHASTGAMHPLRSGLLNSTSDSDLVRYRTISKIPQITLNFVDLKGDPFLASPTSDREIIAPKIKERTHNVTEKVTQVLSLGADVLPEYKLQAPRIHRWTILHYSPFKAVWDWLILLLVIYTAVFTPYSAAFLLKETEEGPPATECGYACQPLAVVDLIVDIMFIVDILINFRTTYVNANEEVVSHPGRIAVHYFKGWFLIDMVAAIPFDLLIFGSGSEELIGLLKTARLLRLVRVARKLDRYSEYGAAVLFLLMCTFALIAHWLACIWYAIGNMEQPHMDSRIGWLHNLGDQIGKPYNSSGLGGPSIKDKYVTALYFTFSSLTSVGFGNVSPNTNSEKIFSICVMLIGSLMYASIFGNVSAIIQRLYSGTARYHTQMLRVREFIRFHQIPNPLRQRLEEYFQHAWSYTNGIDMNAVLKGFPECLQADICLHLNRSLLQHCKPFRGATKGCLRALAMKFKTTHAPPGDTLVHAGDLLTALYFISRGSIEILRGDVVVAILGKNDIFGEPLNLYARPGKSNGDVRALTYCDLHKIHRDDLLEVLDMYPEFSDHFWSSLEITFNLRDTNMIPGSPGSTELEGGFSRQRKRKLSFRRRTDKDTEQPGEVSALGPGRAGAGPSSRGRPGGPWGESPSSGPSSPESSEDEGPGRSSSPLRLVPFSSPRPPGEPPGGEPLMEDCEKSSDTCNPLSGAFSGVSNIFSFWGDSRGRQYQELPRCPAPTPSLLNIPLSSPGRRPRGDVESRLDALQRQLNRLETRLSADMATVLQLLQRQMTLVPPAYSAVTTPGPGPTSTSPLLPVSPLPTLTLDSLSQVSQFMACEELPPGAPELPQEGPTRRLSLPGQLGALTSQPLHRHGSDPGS

Consider `Cc1cc(NC(=O)Nc2ccc(F)c(F)c2)n(-c2ccccc2)n1` [VU0456810, 1-(3,4-difluorophenyl)-3-(3-methyl-1-phenyl-1H-pyrazol-5-yl)urea], for which the % Inhibition – broadly, the share of the control response that was lost under treatment – in data set [1] is recorded as 3%; in [2] it was 21%; in data set [7] it was 7%; in [10], 4%. The inhibition (as a rule, the relative decrease from the control value, in per cent) at 10 µM in data set [3] was 1%; in data set [5], 10%; in data set [6], -17%; in data set [8] it was 0%; in data set [11], 1%; in data set [12], 5%. Further, the inhibition at 10 µM in [13] is 2%. In [4], this molecule gave a rClHEP of 88 mL/min/kg. Besides, the CLhep predicted at 1 μM in data set [4] (mouse, pH 7.4) was 88 mL/min/kg. In addition, the “rotarod performance compared to vehicle” value in data set [9] is “small and insignificant decrease”. In addition, the “decrease in performance on the rotarod vs vehicle” value in [9] (insignificant (p=0.7)) came to 14%. In addition, the partition ratio (Kp) – broadly, the ratio of the level in a tissue or fluid to that in plasma or blood – at 0.5 h in data set [14] (male, C57 BL6, brain/plasma, ip, 30 min after administration) came to 0.2. The concentration at 30 min in [14] (male, C57 BL6, brain, 30 min after administration, read-out: Brain concentration) came out at 500 nM; in data set [14] (male, C57 BL6, plasma, 30 min after administration, read-out: Plasma concentration), 2300 nM; in data set [14] (30 min after administration, read-out: Brain concentration), 500 nM. Further, the half-life (as a rule, the time needed for the level to fall by half in the phase considered) in data set [14] (male, C57 BL6, plasma, ip) worked out at 20 min. In data set [14] (30 min after administration), this molecule yielded a Plasma concentration of 2300 nM.
